# In patent US9789116B2, “Compositions and methods of modulating short-chain dehydrogenase activity” (CASE WESTERN RESERVE UNIVERSITY, priority 2013, dated 2017):
# Entries after “also recorded” stand apart in the source; their conditions may differ.
# Assays:
# Assay type in all cases: in vivo, mouse
# [1] = test system: C57BL/6J female mice; assay: Survival after whole body irradiation; conditions: for Number of mice surviving: 11 Gy, 7 days, 2 dose daily, cohort of 3
# [2] = test system: FVB mice; assay: Liver regeneration after partial hepatectomy, FVB mice
# [3] = test system: C57BL/6J female mice; assay: Survival following acetaminophen (Tylenol) overdose;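 note: control animals received vehicle only, given on a once or twice daily schedule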
# [4] = test system: mice irradiated with 11Gy; assay: Survival of mice following bone marrow transplant (Example 11)
# Text: A matched control cohort received injections with vehicle only. On day one mice received an infusion of donor marrow at doses of 100,000 cells; 200,000 cells; or 500,000 cells. […] Among mice receiving 200,000 donor cells, all control mice were dead by day 12.
# [5] = test system: lethally irradiated mice; assay: Blood and bone marrow recovery after transplant with 500,000 donor marrow cells
# [6] = test system: lethally irradiated mice; assay: Homing of CFSE dye labeled bone marrow cells in lethally irradiated mice; conditions: 10 mg/kg IP
# Description: Drugs are administered following radiation, following the transplant, and again at 8 hours after the transplant.
structure (smiles),measurement,setting,value
"CCCC[S+]([O-])c1sc2nc(-c3cccs3)cc(-c3ccccc3)c2c1N (stereo not shown) [SW033291, 2-(butylsulfinyl)-4-phenyl-6-(thiophen-2-yl)thieno[2,3-b]pyridin-3-amine]",Number of mice surviving,[1]; Day 7,3
same,Number of mice surviving,[1]; Day 8,3
same,Number of mice surviving,[1]; Day 9,2
same,Number of mice surviving,[1]; Day 10,0
same,"longer survival than vehicle control, on average","[1]; 11Gy, any of three 5 mg/kg dosing schedules",1 to 2 days
same,BrdU positive (S-phase) cells in liver,[2]; post-operative day 2,clear increase in numbers of BrdU positive cells
same,increase in median S-phase cells,"[2]; post-operative day 2, P<0.05",greater than 2 fold
same,greater liver weight than control mice,[2]; post-operative day 7,approximately 25%
same,Number of mice surviving,"[3]; 5 mg/kg 1 dose/daily, first dose immediately after Tylenol, 16 hr, cohort of 6",6
same,Number of mice surviving,"[3]; 5 mg/kg 1 dose/daily, first dose immediately after Tylenol, 24 hrs, cohort of 6",6
same,Number of mice surviving,"[3]; 5 mg/kg 2 dose/daily, first dose immediately after Tylenol, 16 hr, cohort of 6",6
same,Number of mice surviving,"[3]; 5 mg/kg 2 dose/daily, first dose immediately after Tylenol, 24 hrs, cohort of 6",6
same,Number of mice surviving,"[3]; 5 mg/kg 2 dose/daily, first dose immediately after Tylenol, 48 hrs, cohort of 6",3
same,Number of mice surviving,"[3]; 5 mg/kg 2 dose/daily, first dose immediately after Tylenol, 64 hrs, cohort of 6",3
same,Number of mice surviving,"[3]; 5 mg/kg 2 dose/daily, first dose immediately after Tylenol, 72 hrs, cohort of 6",3
same,Number of mice surviving,"[3]; 5 mg/kg 2 dose/daily, first dose immediately after Tylenol, 88 hr, cohort of 6",3
same,Number of mice surviving,"[3]; 5 mg/kg 2 dose/daily, first dose immediately after Tylenol, 96 hr, cohort of 6",3
same,Number of mice surviving,"[3]; 5 mg/kg 2 dose/daily, first dose immediately after Tylenol, 112 hr, cohort of 6",3
same,Number of mice surviving,"[3]; 5 mg/kg 2 dose/daily, first dose immediately after Tylenol, 120 hr, cohort of 6",3
same,survival versus control mice,"[3]; 5 mg/kg IP begun immediately following acetaminophen, once or twice daily, through 120 hours",No difference
same,protection from acetaminophen lethality,"[3]; 5 mg/kg IP bid beginning 48 hours prior to acetaminophen, 9 doses",protects from the lethal hepatotoxicity of acetaminophen
same,Number of mice surviving,"[3]; 5 mg/kg bid from 3 hours prior to acetaminophen, 6 doses, 16 hr, cohort of 6",6
same,Number of mice surviving,"[3]; 5 mg/kg bid from 3 hours prior to acetaminophen, 6 doses, 24 hrs, cohort of 6",5
same,Number of mice surviving,"[3]; 5 mg/kg bid from 3 hours prior to acetaminophen, 6 doses, 48 hrs, cohort of 6",3
same,Number of mice surviving,"[3]; 5 mg/kg bid from 3 hours prior to acetaminophen, 6 doses, 64 hrs, cohort of 6",3
same,Number of mice surviving,"[3]; 5 mg/kg bid from 3 hours prior to acetaminophen, 6 doses, 72 hrs, cohort of 6",3
same,Number of mice surviving,"[3]; 5 mg/kg bid from 3 hours prior to acetaminophen, 6 doses, 88 hr, cohort of 6",3
same,Number of mice surviving,"[3]; 5 mg/kg bid from 3 hours prior to acetaminophen, 6 doses, 96 hr, cohort of 6",3
same,Number of mice surviving,"[3]; 5 mg/kg bid from 3 hours prior to acetaminophen, 6 doses, 112 hr, cohort of 6",3
same,Number of mice surviving,"[3]; 5 mg/kg bid from 3 hours prior to acetaminophen, 6 doses, 120 hr, cohort of 6",3
same,Number of mice surviving,"[3]; 5 mg/kg bid from 48 hours prior to acetaminophen, 9 doses, 16 hr, cohort of 12",12
same,Number of mice surviving,"[3]; 5 mg/kg bid from 48 hours prior to acetaminophen, 9 doses, 24 hrs, cohort of 12",12
same,Number of mice surviving,"[3]; 5 mg/kg bid from 48 hours prior to acetaminophen, 9 doses, 40 hrs, cohort of 12",11
same,Number of mice surviving,"[3]; 5 mg/kg bid from 48 hours prior to acetaminophen, 9 doses, 48 hrs, cohort of 12",10
same,Number of mice surviving,"[3]; 5 mg/kg bid from 48 hours prior to acetaminophen, 9 doses, 64 hrs, cohort of 12",10
same,Number of mice surviving,"[3]; 5 mg/kg bid from 48 hours prior to acetaminophen, 9 doses, 72 hrs, cohort of 12",10
same,Number of mice surviving,"[3]; 5 mg/kg bid from 48 hours prior to acetaminophen, 9 doses, 88 hr, cohort of 12",10
same,Number of mice surviving,"[3]; 5 mg/kg bid from 48 hours prior to acetaminophen, 9 doses, 96 hr, cohort of 12",10
same,Number of mice surviving,"[3]; 5 mg/kg bid from 48 hours prior to acetaminophen, 9 doses, 112 hr, cohort of 12",10
same,Number of mice surviving,"[3]; 5 mg/kg bid from 48 hours prior to acetaminophen, 9 doses, 120 hr, cohort of 12",10
same,median survival,"[4]; 100,000 donor cells, 5 mg/kg twice daily",approximate doubling of median survival
same,survival,"[4]; 200,000 donor cells, 30 days of observation",survived at 30 days of observation
same,survival,"[4]; 500,000 donor cells, day 30",all survived
same,total platelet count,[5]; day 5 after transplant,significantly higher total platelet count
same,total white count,[5]; day 5 after transplant,significantly higher total white count
same,platelet count,[5]; day 8 after transplant,"77,000 platelets"
same,neutrophil count,[5]; day 12 after transplant,332 neutrophils
same,total white counts,[5]; day 12 after transplant,significantly higher total white counts; also recorded: significantly greater total white counts
same,lymphocyte count,[5]; day 18 after transplant,significantly higher
same,neutrophil count,[5]; day 18 after transplant,835 neutrophils
same,platelet counts,[5]; day 18 after transplant,significantly higher platelet counts
same,total white count,[5]; day 18 after transplant,significantly higher total white count
same,increase in numbers of homed cells in recipient bone marrow,[6]; FIG. 88,3 fold
same,increase in numbers of homed cells in recipient bone marrow,[6]; FIG. 90,2 fold
same,increase in numbers of homed donor cells in recipient bone marrow,[6]; FIG. 140,approximately 2.5 fold
